Our source for the IC50 values is patent publication US8269026B2, “Lupane derivatives useful for treating HIV” (priority 2008, dated 2012).

Read-outs that look alike come from different tables or passages of the source.

The test relates to HIV-1 (HIVIIIB) replication in MT2 cell line. The test can be described thus: HIV-1 replication in MT2 cell line with and without 30% human serum (viral RT activity in supernatant). As to conditions: Human immunodeficiency virus 1, MT2 cells, average IC50 if tested more than once. Format: cell-based. Summed up:
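MT2 cells infected with HIV-1 IIIB at MOI 0.5 for 3 h, washed, seeded at 0.5×10^6/ml in RPMI/10% FBS with serially diluted compound, with or without 30% human serum; medium and compound refreshed on day 3. RT activity in supernatant at day 5; IC50 and IC90 derived.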

[1] abbreviates: with 30% human serum, read-out: MT2 (HIVIIIB) with HS 30% IC50 range.
[2] abbreviates: without human serum, read-out: MT2 (HIVIIIB) IC50 range.

For `CC(C)C(=O)N[C@@]12CC[C@]3(C)C(CCC4[C@@]5(C)CC[C@H](OC(=O)CC(C)(C)C(=O)O)C(C)(C)C5CC[C@]43C)C1=C(C(C)C)C(=O)C2` (stereo partly drawn) [19-31, 3β-O-(3′,3′-Dimethylsuccinyl)-17β-isopropylamido-21-oxolup-18-ene], the IC50 – broadly, the concentration that inhibits the measured activity by half – under setting [1] was less than 199 nM.
For `CC(C)C1=C2C3CCC4[C@@]5(C)CC[C@H](OC(=O)CC(C)(C)C(=O)O)C(C)(C)C5CC[C@@]4(C)[C@]3(C)CC[C@@]2(NC(=O)C(C)(C)C)CC1=O` (stereo partly drawn) [19-32, 3β-O-(3′,3′-Dimethylsuccinyl)-17β-tert-butylamido-21-oxolup-18-ene], the IC50 under setting [1] is less than 199 nM.
Take `CC(C)C1=C2C3CCC4[C@@]5(C)CC[C@H](OC(=O)CC(C)(C)C(=O)O)C(C)(C)C5CC[C@@]4(C)[C@]3(C)CC[C@@]2(NC(=O)C2CCCCC2)CC1=O` (stereo partly drawn) [19-33, 3β-O-(3′,3′-Dimethylsuccinyl)-17β-cyclohexylamido-21-oxolup-18-ene]: the IC50 runs as follows: under setting [1], less than 199 nM; under setting [2], less than 199 nM.
Consider `CC(C)C1=C2[C@H]3CC[C@@H]4[C@@]5(C)CC[C@H](OC(=O)CC(C)(C)C(=O)O)C(C)(C)[C@@H]5CC[C@@]4(C)[C@]3(C)CC[C@@]2(NC(=O)c2ccnn2C)CC1=O` [19-34, 3β-O-(3′,3′-Dimethylsuccinyl)-17β-(1-methyl-1H-pyrazole-5-amido)-21-oxolup-18-ene], for which the IC50 is less than 199 nM under setting [1] and less than 199 nM under setting [2].
Take `CC(C)C1=C2[C@H]3CC[C@@H]4[C@@]5(C)CC[C@H](OC(=O)CC(C)(C)C(=O)O)C(C)(C)[C@@H]5CC[C@@]4(C)[C@]3(C)CC[C@@]2(NC(=O)c2cnn(C)c2)CC1=O` [19-35, 3β-O-(3′,3′-Dimethylsuccinyl)-17β-(1-methyl-1H-pyrazole-4-amido)-21-oxolup-18-ene]: the IC50 under setting [1] was less than 199 nM and the IC50 under setting [2] was less than 199 nM.
Take `CC(C)C1=C2[C@H]3CC[C@@H]4[C@@]5(C)CC[C@H](OC(=O)CC(C)(C)C(=O)O)C(C)(C)[C@@H]5CC[C@@]4(C)[C@]3(C)CC[C@@]2(NC(=O)C2CCN(C)CC2)CC1=O` [19-36, 3β-O-(3′,3′-Dimethylsuccinyl)-17β-(1-methylpiperidine-4-amido)-21-oxolup-18-ene]: the IC50 under setting [1] was less than 199 nM.
On the same count and under the same terms, then `CC(C)C1=C2[C@H]3CC[C@@H]4[C@@]5(C)CC[C@H](OC(=O)CC(C)(C)C(=O)O)C(C)(C)[C@@H]5CC[C@@]4(C)[C@]3(C)CC[C@@]2(NC(=O)CCN2CCCC2)CC1=O` [19-37, 3β-O-(3′,3′-Dimethylsuccinyl)-17β-(3-pyrrolidin-1-yl-propionamido)-21-oxolup-18-ene], with less than 199 nM; and `CC(C)C1=C2[C@H]3CC[C@@H]4[C@@]5(C)CC[C@H](OC(=O)CC(C)(C)C(=O)O)C(C)(C)[C@@H]5CC[C@@]4(C)[C@]3(C)CC[C@@]2(NC(=O)CN2CCCC2)CC1=O` [19-38, 3β-O-(3′,3′-Dimethylsuccinyl)-17β-(2-pyrrolidin-1-yl-acetamido)-21-oxolup-18-ene], with less than 199 nM.
The same measure, in the same setting: then `CC(C)C1=C2[C@H]3CC[C@@H]4[C@@]5(C)CC[C@H](OC(=O)CC(C)(C)C(=O)O)C(C)(C)[C@@H]5CC[C@@]4(C)[C@]3(C)CC[C@@]2(NC(=O)CCCN2CCCC2)CC1=O` [19-39, 3β-O-(3′,3′-Dimethylsuccinyl)-17β-(4-pyrrolidin-1-yl-butyramido)-21-oxolup-18-ene], with less than 199 nM.
Take `CC(C)C1=C2[C@H]3CC[C@@H]4[C@@]5(C)CC[C@H](OC(=O)CC(C)(C)C(=O)O)C(C)(C)[C@@H]5CC[C@@]4(C)[C@]3(C)CC[C@@]2(NC(=O)CCN2CCCCC2)CC1=O` [19-40, 3β-O-(3′,3′-Dimethylsuccinyl)-17β-(3-piperidin-1-yl-propionamido)-21-oxolup-18-ene]: the IC50 under setting [1] is less than 199 nM.
With `CC(C)C1=C2[C@H]3CC[C@@H]4[C@@]5(C)CC[C@H](OC(=O)CC(C)(C)C(=O)O)C(C)(C)[C@@H]5CC[C@@]4(C)[C@]3(C)CC[C@@]2(NC(=O)CCN2CCCC2=O)CC1=O` [19-41, 3β-O-(3′,3′-Dimethylsuccinyl)-17β-[3-(2-oxo-pyrrolidin-1-yl)-propionamido]-21-oxolup-18-ene], the IC50 under setting [1] was less than 199 nM.
